Data on 14 molecules can be found in ChEMBL document CHEMBL1268880, “Investigation of 4-piperidinols as novel H3 antagonists” (Bioorg Med Chem Lett, 2010).

Series [1] has as its target Histamine H3 receptor (Mus musculus, UniProt P58406). Briefly: Antagonist activity against mouse histamine H3 receptor expressed in human HT1080 cells assessed as inhibition of (R)-alpha-methylhistamine-induced increase in intracellular calcium level by FLIPR assay. It is filed as functional, cell-based, HT-1080.
For series [2], the target named is Histamine H3 receptor (Homo sapiens, UniProt Q9Y5N1). Briefly: Antagonist activity against human histamine H3 receptor expressed in human HT1080 cells assessed as inhibition of (R)-alpha-methylhistamine-induced increase in intracellular calcium level by FLIPR assay. It is filed as functional, cell-based, HT-1080.
The nature of series [3]: Selectivity ratio of IC50 for mouse histamine H3 receptor to IC50 for human histamine H3 receptor.
Series [4] deals with T1, hERG (KCNH2) (Homo sapiens, UniProt Q12809). The experiment in a line: Inhibition of human ERG at 50 uM.
Series [5] concerns the target T1, hERG (KCNH2). The experiment in a line: Inhibition of human ERG at 10 uM.

T1 sequence (Q12809 whole entry): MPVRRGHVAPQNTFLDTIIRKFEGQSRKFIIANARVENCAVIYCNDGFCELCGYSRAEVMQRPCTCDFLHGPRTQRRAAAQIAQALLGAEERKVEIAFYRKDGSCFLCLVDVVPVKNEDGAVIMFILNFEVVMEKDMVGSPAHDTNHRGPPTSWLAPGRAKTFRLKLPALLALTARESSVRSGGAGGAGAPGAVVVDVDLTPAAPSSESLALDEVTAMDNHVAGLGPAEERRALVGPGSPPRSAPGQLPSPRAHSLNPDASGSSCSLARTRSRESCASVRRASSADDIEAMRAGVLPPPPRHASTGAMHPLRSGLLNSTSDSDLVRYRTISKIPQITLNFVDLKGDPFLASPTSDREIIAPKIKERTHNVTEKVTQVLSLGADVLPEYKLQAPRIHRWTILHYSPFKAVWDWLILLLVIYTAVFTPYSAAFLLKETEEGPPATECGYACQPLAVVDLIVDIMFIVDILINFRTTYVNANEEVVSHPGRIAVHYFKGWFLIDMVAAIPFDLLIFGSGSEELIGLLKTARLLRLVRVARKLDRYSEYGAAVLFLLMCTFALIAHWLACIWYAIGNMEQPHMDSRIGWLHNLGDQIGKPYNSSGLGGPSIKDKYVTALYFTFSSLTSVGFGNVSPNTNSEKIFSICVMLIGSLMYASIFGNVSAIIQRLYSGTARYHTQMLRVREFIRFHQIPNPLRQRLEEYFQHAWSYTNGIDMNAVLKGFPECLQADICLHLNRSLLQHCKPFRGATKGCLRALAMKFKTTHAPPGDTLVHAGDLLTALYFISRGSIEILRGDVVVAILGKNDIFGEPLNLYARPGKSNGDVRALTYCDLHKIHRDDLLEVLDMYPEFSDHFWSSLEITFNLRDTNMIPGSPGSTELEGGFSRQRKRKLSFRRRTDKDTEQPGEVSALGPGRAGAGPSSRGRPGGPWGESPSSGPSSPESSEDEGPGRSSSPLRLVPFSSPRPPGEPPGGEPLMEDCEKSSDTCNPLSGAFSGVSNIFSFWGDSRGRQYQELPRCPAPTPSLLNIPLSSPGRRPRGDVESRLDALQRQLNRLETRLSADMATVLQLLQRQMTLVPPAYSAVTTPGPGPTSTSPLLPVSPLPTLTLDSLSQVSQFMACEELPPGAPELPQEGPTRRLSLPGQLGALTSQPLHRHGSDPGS
Chain of Histamine H3 receptor (Homo sapiens, UniProt Q9Y5N1) (Q9Y5N1 whole entry): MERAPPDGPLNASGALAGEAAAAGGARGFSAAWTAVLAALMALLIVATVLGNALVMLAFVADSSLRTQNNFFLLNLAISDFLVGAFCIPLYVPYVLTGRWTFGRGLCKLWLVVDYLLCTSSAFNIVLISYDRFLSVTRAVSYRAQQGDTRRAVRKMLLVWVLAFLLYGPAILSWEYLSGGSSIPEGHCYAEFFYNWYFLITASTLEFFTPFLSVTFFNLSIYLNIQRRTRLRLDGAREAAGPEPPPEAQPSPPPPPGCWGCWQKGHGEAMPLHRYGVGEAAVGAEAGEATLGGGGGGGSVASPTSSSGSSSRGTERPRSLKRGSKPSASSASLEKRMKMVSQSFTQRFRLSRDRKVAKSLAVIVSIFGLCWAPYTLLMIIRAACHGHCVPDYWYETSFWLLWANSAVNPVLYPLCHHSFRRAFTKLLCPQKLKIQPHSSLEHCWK
Chain of Histamine H3 receptor (Mus musculus, UniProt P58406) (P58406 whole entry): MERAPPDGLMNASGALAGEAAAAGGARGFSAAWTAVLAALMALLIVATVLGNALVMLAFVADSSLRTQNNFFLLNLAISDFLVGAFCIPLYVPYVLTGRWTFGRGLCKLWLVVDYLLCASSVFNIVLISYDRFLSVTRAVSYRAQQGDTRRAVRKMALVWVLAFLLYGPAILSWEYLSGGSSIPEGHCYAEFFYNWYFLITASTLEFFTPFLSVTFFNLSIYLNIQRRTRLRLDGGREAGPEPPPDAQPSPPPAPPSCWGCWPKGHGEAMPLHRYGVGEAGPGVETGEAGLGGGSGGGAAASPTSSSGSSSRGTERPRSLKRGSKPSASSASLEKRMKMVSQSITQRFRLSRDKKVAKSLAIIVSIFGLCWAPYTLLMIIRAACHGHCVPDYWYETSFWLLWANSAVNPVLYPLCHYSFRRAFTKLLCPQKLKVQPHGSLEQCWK

For `C[C@@H]1C[C@@](O)(C#Cc2cccc3ccccc23)[C@@H](C)CN1C`, the concentration for half-maximal inhibition (IC50) in series [1] is 119 nM; in series [2], 9 nM. Moreover, in series [3], the Ratio IC50 is 13. Also, the inhibition at 50 µM in series [4] came out at 15%.
`C[C@@H]1CN(C)[C@@H](C)C[C@]1(O)C#Cc1cccc2ccccc12`: the results for the 50% inhibitory concentration (IC50) in series [1] and in series [2] were 1320 nM and 41 nM, respectively.
Consider `C[C@@H]1C[C@@](O)(CCc2cccc3ccccc23)[C@@H](C)CN1C`, for which the IC50 in series [1] was 85 nM; in series [2] it was 2 nM. Besides, in series [5], the inhibition at 10 µM came to 16%.
For `CC1CC(O)(C#Cc2cccc3ccccc23)C(C)CN1C` (racemic), the IC50 in series [1] was determined as 280 nM; in series [2], 11 nM.
For `CC(=O)OC1(C#Cc2cccc3ccccc23)CC(C)N(C)CC1C` (racemic) the same measures were above 10000 nM and 5510 nM.
Take `CC1CC(O)(/C=C/c2cccc3ccccc23)C(C)CN1C` (racemic): the IC50 in series [1] is 570 nM; in series [2], 20 nM. This molecule also showed an inhibition at 10 µM in series [5] of 20%.
For `CC1CC(O)(CCc2cccc3ccccc23)C(C)CN1C` (racemic) the same measures were 480 nM, 17 nM and 15%.
For the molecule `CC1CC(O)(C#Cc2ccc3ccccc3c2)C(C)CN1C` (racemic), the IC50 in series [1] worked out at 810 nM; in series [2], 84 nM.
On to `CC1CC(O)(CCc2ccc3ccccc3c2)C(C)CN1C` (racemic), for which the IC50 amounted to 122 nM in series [1] and 2 nM in series [2]. Further, the inhibition at 10 µM in series [5] was found to be 0%.
For `CC1CN2CCCC2CC1(O)C#Cc1cccc2ccccc12` (racemic) the same measures were 280 nM, 5 nM and 23%.
For the molecule `CC1CN2CCCC2CC1(O)CCc1cccc2ccccc12` (racemic), the IC50 in series [1] came out at 345 nM; in series [2], 14 nM.
Turning to `CC1CC(O)(C#Cc2cccc3ncccc23)C(C)CN1C` (racemic), the results for the half-maximal inhibitory concentration (IC50) in series [1] and in series [2] were 690 nM and 12 nM, respectively. In series [5], this molecule displayed an inhibition at 10 µM of 3%.
As to `CC1CC(O)(C#Cc2cccc3cccnc23)C(C)CN1C` (racemic), the figures for the concentration for half-maximal inhibition (IC50) in series [1] and in series [2] were 9730 nM and 709 nM, respectively.
Turning to `NC(=NCc1ccc(Cl)cc1)SCCCc1cnc[nH]1` [CLOBENPROPIT], the IC50 in series [1] was 1 nM.
